Source: the NIST ThermoML archive (doi:10.1021/acs.jced.5b00251)

Experiment: refractive index (other wavelength) (dimensionless); xn = mol fraction of the nth substance listed
Conditions: 101 kPa, Liquid, Standard Abbe refractometry

CC(C)Cc1ccccc1 [(2-methylpropyl)benzene] + c1ccc2c(c1)CCCC2
refractive index
Conditions | x2 = 0.1014 | x2 = 0.2024 | x2 = 0.3032 | x2 = 0.4036 | x2 = 0.5038 | x2 = 0.6036 | x2 = 0.7032 | x2 = 0.8024 | x2 = 0.9014
308.15 K, Wavelength=436.1 nm | 1.50202 | 1.50759 | 1.5129 | 1.51879 | 1.52412 | 1.53042 | 1.53639 | 1.5425 | 1.54823
308.15 K, Wavelength=513.9 nm | 1.49045 | 1.49591 | 1.50103 | 1.50671 | 1.51215 | 1.51765 | 1.52366 | 1.52953 | 1.53505
308.15 K, Wavelength=589.3 nm | 1.48428 | 1.48939 | 1.49461 | 1.49955 | 1.50515 | 1.51099 | 1.51661 | 1.52237 | 1.52797
308.15 K, Wavelength=633.2 nm | 1.48142 | 1.48659 | 1.4917 | 1.49701 | 1.50224 | 1.50811 | 1.51368 | 1.51941 | 1.52477
308.15 K, Wavelength=657.2 nm | 1.48038 | 1.48538 | 1.49085 | 1.49669 | 1.50224 | 1.50738 | 1.51272 | 1.51825 | 1.52447
313.15 K, Wavelength=436.1 nm | 1.49957 | 1.5048 | 1.51044 | 1.51631 | 1.52152 | 1.52806 | 1.53388 | 1.54002 | 1.54572
313.15 K, Wavelength=513.9 nm | 1.48816 | 1.49321 | 1.49885 | 1.50413 | 1.50976 | 1.51512 | 1.52123 | 1.52715 | 1.53263
313.15 K, Wavelength=589.3 nm | 1.48198 | 1.48705 | 1.49215 | 1.49702 | 1.50259 | 1.50845 | 1.51422 | 1.52003 | 1.52558
313.15 K, Wavelength=633.2 nm | 1.47918 | 1.48409 | 1.48957 | 1.49422 | 1.49959 | 1.50542 | 1.51132 | 1.51708 | 1.52248
313.15 K, Wavelength=657.2 nm | 1.47807 | 1.48312 | 1.48866 | 1.49418 | 1.49947 | 1.50491 | 1.51025 | 1.51573 | 1.52168
318.15 K, Wavelength=436.1 nm | 1.49678 | 1.50247 | 1.50783 | 1.51372 | 1.51897 | 1.52533 | 1.53125 | 1.53748 | 1.54301
318.15 K, Wavelength=513.9 nm | 1.48564 | 1.49078 | 1.49611 | 1.50143 | 1.50751 | 1.51299 | 1.51892 | 1.52466 | 1.53007
318.15 K, Wavelength=589.3 nm | 1.47955 | 1.48455 | 1.48962 | 1.49455 | 1.49987 | 1.50614 | 1.51175 | 1.51758 | 1.52287
318.15 K, Wavelength=633.2 nm | 1.47656 | 1.48179 | 1.4869 | 1.49181 | 1.49721 | 1.50325 | 1.50887 | 1.51464 | 1.51989
318.15 K, Wavelength=657.2 nm | 1.47562 | 1.48056 | 1.48595 | 1.49181 | 1.49685 | 1.50222 | 1.50758 | 1.51388 | 1.51897
